Data on 4 molecules can be found in patent publication EP3492483A1, “COMPOUNDS AND METHODS FOR TREATING BACTERIAL INFECTIONS” (The Washington University, priority 2009, dated 2011).

Data set [1] relates to UTI89 biofilm. As to the kind of experiment: Biofilm formation inhibition assay (PVC, crystal violet). It is filed as cell-based, UPEC. Particulars: PVC, LB, room temperature; read-out: IC50 of mannoside on UTI89 biofilm formation.
Procedure: First, the ability of mannoside derivatives to prevent UPEC type 1 dependent biofilm formation in the published Kolter assay was measured as optimized for the prototypic UTI89 strain used in these assays.
(§3) These mannosides were evaluated first for their ability to inhibit biofilm formation or disrupt preformed biofilms. Biofilm inhibition was evaluated on FimH-dependent UTI89 biofilms grown on PVC in LB at room temperature. […] Biofilm disruption was evaluated by the addition of mannosides to preformed 24 h biofilms followed by growth for an additional 16 h.
UTI89 biofilm was grown in LB +/- mannoside for 24 h at 22°C in PVC plates and quantitated using crystal violet.
Biofilm assay. UTI89 was grown in LB broth in wells of PVC microtiter plates at 23°C in the presence of individual mannosides at varying concentrations. After 48 h of growth, wells were rinsed with water and stained with crystal violet for quantification as described. For biofilm disruption activity in PVC plates, UTI89 was grown in LB broth in wells of PVC microtiter plates at 23°C. After 24 h of growth, mannoside was added and biofilms were grown for an additional 16h. Wells were then rinsed, stained with crystal violet and quantified.
In data set [2] the test system is UTI89 biofilm. As to the kind of experiment: Disruption of preformed biofilm. The class given is cell-based, UPEC. Conditions: for IC50: another 24h.
Procedure: as §3
For biofilm disruption activity in PVC plates, UTI89 was grown in LB broth in wells of PVC microtiter plates at 23°C. After 24 h of growth, mannoside was added and biofilms were grown for an additional 16h. Wells were then rinsed, stained with crystal violet and quantified. For biofilm disruption activity on PVC coverslips, UTI89 was grown in LB broth in 50 mL conicals containing PBC coverslips at 23°C. […] Coverslips were then rinsed, fixed with 2% paraformaldehyde (v/v), stained with SYTO9 (1:1000 in PBS; Molecular Probes) and observed with a Zeiss LSM410 confocal laser scanning microscope under a 63X objective.
UTI89 was grown in LB in PVC plates and allowed to form biofilm at RT for 24 or 48h. […] Biofilm was then allowed to grow for another 24h at RT. Biofilm formation was then quantitated using the standard crystal violet assay.
The subject of data set [3] is PBC-1. As to the kind of experiment: Growth curve with TMP-SMZ (MIC). The class given is cell-based, UPEC.
Data set [4] relates to UTI89. The data set is described as follows: Bladder bacterial titer (CFU), mouse UTI model, UTI89. It is filed as in vivo, mice. Particulars: for bacterial titers upon boosting: pretreatment plus 2 treatments every 8h.
Data set [5] can be described thus: Solubility (qualitative statements).
Data set [6] concerns UTI89. The data set is described as follows: Bladder bacterial titer (CFU), mouse UTI model, UTI89. The class given is in vivo, mice. Particulars: for total bacterial CFUs: 6 hpi. The method, then:
(§1) After invasion, UPEC are able to rapidly replicate to form IBCs, thus dramatically expanding in numbers. After maturation of the IBC, bacteria are able to disperse from the biomass and spread to neighboring cells to expand the buildup in bacterial numbers via next generation IBC. The ability of mannosides to block IBC formation was evaluated based on LacZ staining of whole mount bladders, a protocol developed to enumerate IBCs. Whole bladder titers were also determined by quantifying colony forming units (CFUs) at 6 hours post-infection and later time points as test compounds were further developed.
Animal infections. Bacteria were grown under type 1 pili-inducing conditions (2x24 h at 37°C statically in LB). The bacteria were harvested and resuspended to an OD600 of 0.5 in PBS. Eight-week-old C3H/HeN (Harlan) female mice were anesthetized by inhalation of isoflurane and infected via transurethral catheterization with 50 µl of the bacterial suspension, resulting in 1-2 x 10^7 inoculum. At 6 hpi, mice were sacrificed by cervical dislocation under anesthesia and the bladders were immediately harvested and processed as described below. All animal studies using mice were approved by the Animal Studies Committee of Washington University (Animal Protocol Number 20100002).
Bladder tissue bacterial titer determination. Mannoside ZFH-2056 was administered either IP (5 mg/kg) or orally (100 mg/kg) 30 min prior to inoculation with UTI89. To enumerate the bacteria present, mice were sacrificed at 6 hpi and bladders were aseptically removed and homogenized in 1 ml PBS, serially diluted and plated onto LB agar plates. CFU was enumerated after 16 h of growth at 37 °C.

The target of data set [7] is T1, FimH (Escherichia coli, UniProt Q1R2J4).
T1 construct: endogenous in cells; host or cells: type 1 piliated UPEC bacteria
The data set is described as follows: cell-based. Further details: species or system UPEC. Conditions: for inhibition of FimH-dependent hemagglutination: in words.
Procedure: In some embodiments, activity of the compound is measured using hemmagglutination titer of guinea pig red blood cells. Hemagglutination of guinea pig red blood cells by type1 piliated UPEC is dependent upon FimH mannose binding ability and serial dilutions allow a quantitative analysis.
Biological activity against FimH was evaluated using a guinea pig red blood cell-based hemagglutination (HA) assay (ref) in which the concentration of the mannoside on reducing agglutination by 50% was used as the primary endpoint (50% HA titer).
Hemagglutination of guinea pig red blood cells by type1 piliated UPEC is dependent upon FimH mannose binding ability.

For data set [8], the target named is T2, FimH (Escherichia coli, UniProt P08191).
Source text: In order to more accurately determine the relative contributions of both binding affinity to FimH versus other compound properties to the potency seen in the cellular HA titer assay, a high-throughput fluorescence polarization (FP) (or anisotropy) competitive binding assay was developed using a fluorescent-labeled mannoside ligand shown in Scheme 4.
A fluorescent polarization assay was developed and miniaturized to monitor the direct binding of a synthesized fluorescently labeled butyl mannose derivative to the FimH receptor as well as competitive displacement by other synthetic mannosides. This fluorescent polarization assay provides a rapid method for monitoring improvements to receptor affinity during the synthetic process, as well as providing Kd binding affinity measurements.
The nature of data set [9]: Urine pharmacokinetic analysis of mannoside (LC-MS). It is filed as in vivo, mice. The method, then:
Pharamacokinetic analysis. […] An equal volume of 10 µM internal standard (ZFH-2050) was added to the urine.

For data set [10], the system named is UTI89. The data set is described as follows: Gentamicin protection assay of infected mouse bladders. The class given is in vivo, mice. An excerpt: Based on the extensive elucidation of the UPEC pathogenic cascade, critical nodes in pathogenesis that mannosides would target and thereby have powerful and potent therapeutic ramifications were identified. The first step in the UPEC pathway involves FimH-mediated colonization of the bladder epithelium via the recognition of mannose receptors. Bacterial invasion into superficial bladder umbrella cells can then ensue. […] To test this, a well-established gentamicin protection assay that allows the determination of the luminally bound fraction versus the intracellular fraction was utilized (Fig 10). […] This may be due to contamination from bacteria in the urine or bacteria that are non-specifically associated with the epithelium. In any case, blocking invasion blocks the ability of the bacteria to rapidly expand in numbers. This is due to the ability of the mannosides to block the IBC mechanism.
The efficacy of in vivo mannoside treatment was evaluated after dosing animals with mannoside either IP or PO 30 min prior to infecting with UTI89. At 6 hpi the bladders were removed and total bacterial CFUs were quantitated. […] Gentamicin efficiently kills extracellular UPEC but is unable to penetrate tissue and thus intracellular bacteria survive gentamicin treatment18. […] In bladders from untreated mice, 10^3 - 10^4 CFUs remained after gentamicin treatment.
Gentamicin protection assay. […] The bladders were then bisected twice and washed three times in 500 µl of PBS each. The wash fractions were pooled, lightly spun at 500 rpm for 5 min to pellet exfoliated bladder cells, serially diluted, and plated onto LB agar to obtain the luminal fraction. The bladders were treated with 100 µg of gentamicin/ml for 90 min at 37°C. After treatment, the bladders were washed twice with PBS to eliminate residual gentamicin, homogenized in 1 ml of PBS, serially diluted, and plated onto LB agar to enumberate the CFUs in the intracellular fraction.

Data set [11] deals with UTI89. As to the kind of experiment: IBC enumeration by LacZ staining of whole bladders. The class given is in vivo, mice. The method, then: as §1
To test the efficacy of the mannosides in vivo, UTI89 expressing type 1 pili were pre-incubated with mannosides, inoculated into mice and IBCs were quantitated at 6 hours post-infection (hpi).
Enumeration of bladder IBCs. For bacterial pretreatment experiments, mannoside was added to the bacterial suspension and incubated for 20 min. For animal pretreatment experiments, mannoside ZFH-2056 was administered either IP (5 mg/kg) or orally (100 mg/kg) 30 min prior to inoculation with UTI89. To accurately count the number of IBCs, mice were sacrificed 6 hpi and bladders were aseptically removed, bisected, splayed on silicone plates and fixed in 2% paraformaldehyde (v/v). IBCs, readily discernable as punctate violet spots, were quantified by LacZ staining of whole bladders.

Data set [12] relates to PBC-1. As to the kind of experiment: Bladder bacterial titer (CFU), mouse UTI model, TMP-SMZ resistant strain. The class given is in vivo, mice. The method, then:
(§2) Mice were either untreated or IP treated with mannoside ZFH-2056 30 min prior to inoculation with bacteria. […] Not only do the bacteria escape the immune system in their intracellular niche, they are also able to escape exposure to effective antibiotics.

For data set [13] the following is noted: 3 days of 54 µg/ml TMP and 270 µg/ml SMZ in drinking water. The method, then:
as §2
Antibiotic treatment. […] Water was changed daily for 3 days prior to inoculation with UTI89.

The target in data set [14] is T2, FimH. Conditions: previously reported, SPR; cited from earlier work.
Where [15] appears, read: 1 hour post-infection, in presence of mannoside.

In brackets after ≈: the same amount, converted by molar mass. Entries after “also recorded” stand apart in the source; their conditions may differ.

Broadly, the IC50 is the concentration needed to halve the response being measured. What is called EC50 is the concentration at which the effect is half-maximal. High values mean lower potency in that assay, low ones higher potency in that assay. What is called EC90 is the concentration needed for an effect of 90%. In the case of `CNC(=O)c1cc(C(=O)NC)cc(-c2ccc(O[C@H]3O[C@H](CO)[C@@H](O)[C@H](O)[C@@H]3O)cc2)c1` [Compound 50, N1,N3-dimethyl-5-[4-[(2R,3S,4S,5S,6R)-3,4,5-trihydroxy-6-(hydroxymethyl)tetrahydropyran-2-yl]oxyphenyl]benzene-1,3-dicarboxamide], the half-inhibitory concentration (IC50) is 740 nM in the data set on UTI89 biofilm [1], roughly 6000 nM in the data set with UTI89 biofilm [2] (mannoside added at 24h) and roughly 25000 nM in the data set on UTI89 biofilm [2] (mannoside added at 48h). The “biofilm structure by confocal microscopy” value in the data set with UTI89 biofilm [2] (0.3 µM, 24 h biofilm plus 16 h) is “lacked continuity”. For the same molecule, the “effect on efficacy of TMP-SMZ killing” value in the data set on PBC-1 [3] (100 µM mannoside) is recorded as “not found to increase the efficacy of TMP-SMZ killing”. Moreover, the bladder titers entry is listed as “significantly reduced bacterial titers” in the data set on UTI89 [4] (5mg/kg 30 min prior, 10^7 UTI89, 24 hpi); “significantly inhibited bacterial infection” in the data set on UTI89 [4] (50mg/kg 30 min prior, 10^7 UTI89, 6 hpi); “significantly reduced bacterial titers” in the data set on UTI89 [4] (50mg/kg 30 min prior, 10^7 UTI89, 24 hpi); “significantly inhibited bacterial infection” in the data set on UTI89 [6] (5mg/kg 30 min prior, 10^7 UTI89, 6 hpi). In the data set with UTI89 [4] (10^6 inoculum, single dose 5mg/kg 30 min prior), the 2 week titers entry is listed as “significant decrease in bacterial load”. In addition, the bacterial titers result is “significant decrease” in the data set with UTI89 [4] (10^6 inoculum, treated vs untreated mice); “significant drop in bacterial titers” in the data set with UTI89 [4] (24hpi, single IP pretreatment 5mg/kg, 10^7 and 10^6 inoculum). Further, the “bacterial titers, post-infection treatment” value with UTI89 [4] (24hpi, 5mg/kg IP 1h post-infection plus 2 treatments every 8h) is “no efficacy observed”. The “bacterial titers upon boosting” value was “not observed” with UTI89 [4] (24hpi, 10^6 inoculum) and “further efficacy” in the data set on UTI89 [4] (24hpi, 10^7 inoculum). Further, in data set [5] (relative to di-ester 15a), the solubility result was “much improved solubility”. The “total bacterial CFUs” value is listed as “significant drop in bacterial counts; also recorded: significant drop in bacterial load” with UTI89 [6] (IP (5 mg/kg) 30 min prior to inoculation, listed as ZFH-2056, 5 mg/kg) and “significant drop in bacterial counts” with UTI89 [6] (oral (100 mg/kg) 30 min prior to inoculation). For the same molecule, the figures for the EC50 at FimH [7] and at FimH [8] were 370 nM and 87 nM, respectively. At FimH [7] (HA titer vs FP EC50), the “difference in cell potency vs. binding (drop in cell activity relative to binding)” value stood at 4 fold. Moreover, the “inhibition of FimH-dependent hemagglutination” value against FimH [7] is given as “potent inhibitors”. In addition, the concentration for an effect of 90% (EC90) at FimH [7] (read-out: HA 50% titer EC90) was determined as 370 nM. Further, in [9] (100 mg/kg PO), the “lower initial urine concentration versus IP” value was found to be 10 fold. Moreover, the “higher urine levels versus IP” value in data set [9] (100 mg/kg PO, 8 hours post-dosing) was 10 fold. In addition, the “concentration in the urine” value in [9] (IP 5 mg/kg and 10 mg/kg, 30 min after treatment) was roughly 5000 µM. In [9] (IP dosing, post injection), the “time by which mostly gone (eliminated in the urine)” value lay in the range of 6 to 8 h. The “drug cleared to the urine intact” value in data set [9] (mouse, in vivo) is reported as greater than 95%. The concentration at 8 h in data set [9] (mouse, urine, IP, eight hours after dosing, read-out: level in the urine) is no more than 0.74 µM. Besides, the luminal bacteria entry in the data set on UTI89 [10] (6 hpi, IP (5 mg/kg) pretreatment) is “significantly reduced”. The “intracellular bacteria (CFUs after gentamicin)” value with UTI89 [10] (6 hpi, IP (5 mg/kg) pretreatment, listed as ZFH-2056) is “eliminated all CFUs; also recorded: significantly reduced”. The IBCs entry in the data set with UTI89 [11] (6 hpi, UTI89 pre-incubated with 10 µM) is “most significant reduction in IBCs”. Besides, in the data set on UTI89 [11] (10^6 inoculum, 6h), the “IBC counts in the bladder” value is given as “no IBCs observed”. Further, the IBC quantification result is listed as “significant reduction in IBCs” in the data set on UTI89 [11] (IP (5 mg/kg) 30 min prior to inoculation, 6 hpi) and “significant reduction in IBCs” in the data set on UTI89 [11] (oral (100 mg/kg) 30 min prior to inoculation, 6 hpi). Further, the “efficacy against TMP-SMZ resistant strains” value with PBC-1 [12] (Fig. 29) is “increased efficacy”. Also, in the data set on PBC-1 [12] (IP 30 min prior to inoculation, 6 hpi), the “bacterial load in the bladder” value is listed as “significant drop in bacterial load”.
Usually MIC stands for the least concentration at which growth counts as inhibited. Low values mean a more susceptible organism, high ones a less susceptible organism. Regarding `COc1cc(Cc2cnc(N)nc2N)cc(OC)c1OC` [TMP, Trimethoprim], the minimum inhibitory concentration (MIC) against PBC-1 [3] is 256 µg/mL (≈ 882 µM). In addition, the concentration in urine in data set [13] worked out at 9950 ± 4360 µg/mL.
Broadly, the Kd is the free concentration of one partner at which half of the binding sites on the other are occupied at equilibrium, for simple one-to-one binding. On to `CCCCO[C@H]1O[C@H](CO)[C@@H](O)[C@H](O)[C@@H]1O` [Butylαman, α-D-butylmannoside, reference compound], for which the EC50 at FimH [8] was 245 nM. The Kd on FimH [14] was 151 nM.
On to `COC(=O)c1cccc(-c2ccc(OC3OC(CO)C(O)C(O)C3O)cc2)c1` (centres unmarked) [ZFH253], for which, in the data set on UTI89 biofilm [1], the IC50 is 940 nM. Further, in the data set on UTI89 [4] (6 hours post-infection, 1 mM treated bacteria), the “CFUs (bacterial load)” value is “significant decrease”. Moreover, the solubility result in data set [5] (in words) was “insoluble”. At FimH [7], the “increase in potency in the HA titer assay over ZFH296” value came out at 16 fold and the “inhibition of FimH-dependent hemagglutination” value is reported as “potent inhibitors”. In addition, in the data set with UTI89 [10] (setting [15]), the intracellular bacteria entry is “significant reduction in intracellular bacteria” and the luminal bacteria entry is on record as “reduction was not observed”. Moreover, the IBCs result with UTI89 [11] (6 hours post-infection, 0.1 mM) was “significant decrease in IBCs”. For the same molecule, the IBCs result in the data set on UTI89 [11] (6 hours post-infection, 1 mM) is given as “almost no IBCs observed”.
